Experimental data published in US20140011853A1, “SUBSTITUTED 3-(BIPHENYL-3-YL)-8,8-DIFLUORO-4-HYDROXY-1-AZASPIRO[4.5]DEC-3-EN-2-ONES FOR THERAPY” (BAYER INTELLECTUAL PROPERTY GMBH, priority 2011, published 2014).
Several values for one entry are separate records, joined by “and”; a condition that tells them apart may be missing. Identical values can stand only once. Like-named read-outs stand apart in the source and are kept apart here.

Columns and labels:
MCF7 = assay: Tumour cell proliferation, CellTiter-Glo, 96-hour incubation, MCF7; assay type: cell-based
Method: (§1) In accordance with the invention, the substances were tested in cell-based assays for the ability of the substances of inhibiting tumour cell proliferation after a 96-hour incubation with the substance. Cell viability was tested using the CellTiter-Glo® luminescent cell viability assay (Promega). The cells were sown at a density of 2000-5000 cells/well (depending on the cell line) in 100 μl growth medium on 96-well microtiter plates. For each cell line examined, cells were sown on a separate plate to determine the luminescence at t=0 hours and t=96 hours. After overnight incubation at 37° C., the luminescence values for the t=0 samples were determined. The dose plates for the t=96 hours points in time were treated with substances diluted with growth medium. The cells were then incubated at 37° C. for 96 hours, and the luminescence values for the t=96 hours samples were then determined. For data analysis, the t=0 values were subtracted from the t=96 hours values for treated and untreated samples. The differences in luminescence in percent between substance-treated samples and control values were used to determine the growth inhibition in percent.
(§2) The substances were tested in the following cell lines which represent the stated indications in an exemplary manner: […]

human ACC2 = human ACC2 (Homo sapiens, UniProt O00763); assay: Human ACC2 enzyme assay (ADP-Glo); conditions: ACC 2 IC50, individual measurements
Chain of human ACC2 (O00763 27-2458 limits assumed): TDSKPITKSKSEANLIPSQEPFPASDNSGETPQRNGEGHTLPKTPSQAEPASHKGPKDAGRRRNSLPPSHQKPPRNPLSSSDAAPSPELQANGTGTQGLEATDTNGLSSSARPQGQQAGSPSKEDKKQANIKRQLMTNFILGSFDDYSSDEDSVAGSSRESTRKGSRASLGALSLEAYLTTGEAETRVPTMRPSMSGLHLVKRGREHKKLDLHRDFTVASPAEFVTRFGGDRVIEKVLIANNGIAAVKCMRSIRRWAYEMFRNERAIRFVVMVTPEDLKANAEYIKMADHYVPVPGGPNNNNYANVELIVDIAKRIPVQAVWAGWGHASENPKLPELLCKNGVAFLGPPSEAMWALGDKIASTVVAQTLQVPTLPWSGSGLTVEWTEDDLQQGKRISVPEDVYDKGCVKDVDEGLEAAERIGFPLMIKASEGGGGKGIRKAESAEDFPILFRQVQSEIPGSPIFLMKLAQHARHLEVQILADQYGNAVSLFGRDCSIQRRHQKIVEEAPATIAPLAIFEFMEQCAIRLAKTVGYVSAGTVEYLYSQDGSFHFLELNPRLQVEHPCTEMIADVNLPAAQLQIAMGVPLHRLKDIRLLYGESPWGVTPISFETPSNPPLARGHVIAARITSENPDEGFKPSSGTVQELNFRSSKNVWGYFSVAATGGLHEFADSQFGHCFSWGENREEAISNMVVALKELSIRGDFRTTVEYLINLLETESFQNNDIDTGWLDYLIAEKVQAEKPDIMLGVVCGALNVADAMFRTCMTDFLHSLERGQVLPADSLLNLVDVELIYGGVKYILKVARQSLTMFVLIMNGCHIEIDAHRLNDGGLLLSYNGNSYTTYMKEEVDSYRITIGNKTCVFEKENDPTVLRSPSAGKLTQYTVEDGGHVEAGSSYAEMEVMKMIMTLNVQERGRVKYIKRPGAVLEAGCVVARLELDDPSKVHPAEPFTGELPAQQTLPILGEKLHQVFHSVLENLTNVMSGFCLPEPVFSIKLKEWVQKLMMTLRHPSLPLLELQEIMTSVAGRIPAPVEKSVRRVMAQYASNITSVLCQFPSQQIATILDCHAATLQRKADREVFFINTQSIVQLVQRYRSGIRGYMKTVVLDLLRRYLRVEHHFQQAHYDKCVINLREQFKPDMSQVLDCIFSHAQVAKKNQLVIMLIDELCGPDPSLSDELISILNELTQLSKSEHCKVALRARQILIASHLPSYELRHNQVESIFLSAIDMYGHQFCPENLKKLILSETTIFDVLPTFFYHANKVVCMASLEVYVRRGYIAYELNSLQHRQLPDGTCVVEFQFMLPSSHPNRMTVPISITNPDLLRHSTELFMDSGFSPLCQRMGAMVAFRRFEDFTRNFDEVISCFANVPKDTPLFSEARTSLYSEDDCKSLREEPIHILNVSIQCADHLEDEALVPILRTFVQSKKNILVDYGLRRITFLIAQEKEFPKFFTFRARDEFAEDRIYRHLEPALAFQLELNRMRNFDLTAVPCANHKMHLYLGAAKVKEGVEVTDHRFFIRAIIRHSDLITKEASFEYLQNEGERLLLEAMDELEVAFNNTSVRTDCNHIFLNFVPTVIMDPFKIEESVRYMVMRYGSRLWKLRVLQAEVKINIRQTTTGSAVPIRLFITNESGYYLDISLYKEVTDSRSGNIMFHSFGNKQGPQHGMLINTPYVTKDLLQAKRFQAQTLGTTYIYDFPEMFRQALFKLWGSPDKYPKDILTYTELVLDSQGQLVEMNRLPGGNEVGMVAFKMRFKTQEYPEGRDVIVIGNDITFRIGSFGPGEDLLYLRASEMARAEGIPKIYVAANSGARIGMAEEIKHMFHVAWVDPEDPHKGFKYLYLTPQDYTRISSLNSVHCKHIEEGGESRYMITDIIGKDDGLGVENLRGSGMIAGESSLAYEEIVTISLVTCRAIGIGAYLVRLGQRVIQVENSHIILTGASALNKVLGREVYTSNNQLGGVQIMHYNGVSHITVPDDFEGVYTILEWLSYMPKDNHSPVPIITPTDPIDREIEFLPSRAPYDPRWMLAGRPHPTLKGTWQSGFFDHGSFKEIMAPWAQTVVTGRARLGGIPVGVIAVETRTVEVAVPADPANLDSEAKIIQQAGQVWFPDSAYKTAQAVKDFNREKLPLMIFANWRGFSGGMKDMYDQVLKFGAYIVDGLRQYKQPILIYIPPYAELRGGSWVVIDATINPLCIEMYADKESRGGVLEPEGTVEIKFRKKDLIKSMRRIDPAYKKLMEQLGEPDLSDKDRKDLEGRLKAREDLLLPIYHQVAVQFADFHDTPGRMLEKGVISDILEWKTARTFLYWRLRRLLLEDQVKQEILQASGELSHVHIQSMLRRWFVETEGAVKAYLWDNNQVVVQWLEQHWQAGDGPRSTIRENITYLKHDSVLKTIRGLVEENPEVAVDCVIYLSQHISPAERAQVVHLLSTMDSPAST

H460 = assay: Tumour cell proliferation, CellTiter-Glo, 96-hour incubation, H460; assay type: cell-based
Method: as §1, §2

plasma proteins = assay: Plasma protein binding by equilibrium dialysis, mouse; assay type: in vitro ADME
Method: (§3) The binding of test substances to plasma proteins is determined by equilibrium dialysis by means of the Ht-dialysis apparatus (96-well) made of Teflon and a semipermeable membrane (regenerated cellulose, MWCO 12-14K). This separates 150 μl each of a plasma side and a buffer side (50 mM phosphate buffer). The test substance is added in 2 concentrations (usually 3 and 0.3 μM) to the plasma side and binds to plasma proteins. The unbound fraction of the test substance passes through the membrane and is distributed on either side until equilibrium is established (after approx. 6-8 h at 37° C.). The substance concentration on the buffer side and the plasma side is determined by LC-MS analysis. For this, both sides are brought by dilution with buffer or plasma to the same matrix (10% plasma) and then precipitated with methanol. The free (unbound) fraction (fu) is calculated from the quotient of the buffer and plasma concentration. Stability tests and recovery tests are run concurrently as controls. In addition, the substance in buffer is dialysed against buffer, to check the nonspecific binding to apparatus and membrane and establishment of equilibrium. Because during incubation the osmotic pressure of the plasma proteins leads to dilution of the plasma (volume shift), this possible error is determined by weighing blank plasma samples and is included in the calculation of fu. Establishment of equilibrium and plasma stability should have a value not lower than 80% and the recovery should be at least 30%. A free fraction of <1% is regarded as high, between 1 and 10% as moderate and >10% as low plasma protein binding.

[1] = Membrane affinity logMA (MA-Transil); assay type: physicochemical; conditions: buffer pH 7.4
PC3 = assay: Tumour cell proliferation, CellTiter-Glo, 96-hour incubation, PC3; assay type: cell-based
Method: as §1, §2

[2] = biological target: human serum albumin (HSA) (Homo sapiens, UniProt P02768); assay: Protein binding to human serum albumin (HSA-Transil)
Chain of human serum albumin (HSA) (P02768 25-609): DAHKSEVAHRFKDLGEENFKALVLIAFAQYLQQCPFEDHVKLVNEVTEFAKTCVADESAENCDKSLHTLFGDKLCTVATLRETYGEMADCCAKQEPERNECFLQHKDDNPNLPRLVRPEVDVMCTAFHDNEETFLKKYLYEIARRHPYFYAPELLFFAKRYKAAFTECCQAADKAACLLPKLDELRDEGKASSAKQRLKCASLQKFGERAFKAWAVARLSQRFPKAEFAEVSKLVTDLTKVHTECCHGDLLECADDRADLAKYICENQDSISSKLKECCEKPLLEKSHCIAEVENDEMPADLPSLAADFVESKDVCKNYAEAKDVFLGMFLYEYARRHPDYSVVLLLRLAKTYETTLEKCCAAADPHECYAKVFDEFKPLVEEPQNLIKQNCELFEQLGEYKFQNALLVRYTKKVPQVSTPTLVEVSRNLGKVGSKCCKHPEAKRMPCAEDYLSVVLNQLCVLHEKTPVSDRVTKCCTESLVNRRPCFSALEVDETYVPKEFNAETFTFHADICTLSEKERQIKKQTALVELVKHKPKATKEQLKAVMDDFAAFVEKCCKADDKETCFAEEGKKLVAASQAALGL

KM12 = assay: Tumour cell proliferation, CellTiter-Glo, 96-hour incubation, KM12; assay type: cell-based
Method: as §1, §2

[3] = Octanol/water distribution coefficient (logP/D), isocratic HPLC method; assay type: physicochemical; conditions: pH 7.4
Description: Assay for Determining the Octanol/Water Distribution Coefficient (logP/D):
The distribution coefficient octanol/water P or D is a key parameter for estimating membrane penetration and permeability. It is defined as the ratio of the equilibrium concentrations of a substance in the two-phase system octanol/water.
It is usually stated in form of the decadic logarithm (logP or logD).
logP describes the distribution behaviour of a substance exclusively present in its neutral form. logD describes the distribution behaviour of a substance at a certain pH; depending on the ionization constant pKa of the substance, some of the substance may be present in ionic form, and some in neutral form.
The logP/D of the active compounds was determined using an isocratic HPLC method (HPLC=high performance liquid chromatography) (literature: OECD Guideline for Testing of Chemicals No. 117). The method is based on the correlation of the HPLC retention time of the test substance to that of reference substances with known distribution coefficients.
The test substance was employed as a 10 mM solution in DMSO (DMSO=dimethyl sulphoxide). 10 μl of this solution were made up to 100 μl with a methanol/water mixture in a ratio of 7+3.
The nine reference substances were dissolved individually in methanol. 100 μl each of the stock solutions were added to an HPLC vial and mixed with 300 μl of water.
A formamide solution was used to determine the hold-up time. To this end, 7 mg of formamide were dissolved in 10 ml of methanol. 100 μl of this stock solution were mixed with 500 μl of methanol and 200 μl of water.
All solutions were chromatographed using a flow rate of 1.00 ml/min.
Injection Protocol: formamide, references, test substance 1, test substance 2, . . . , formamide, references.
Evaluation of the retention times was carried out in a diode array detector (DAD) at 200-400 nm Via the molecular mass, the identity of the test substance was checked using the downstream mass spectrometer.
The HPLC run was evaluated using the Waters software Masslynx 4.1.
The logP/D values were calculated using the software “POW Determination” (proprietary development).

human ACC1 [4] = assay: Human ACC1 enzyme assay (ADP-Glo); assay type: biochemical; conditions: for Ratio of IC50s ACC2/ACC1 (respective measurement): pairwise, same dilution series
[5] = Plasma protein binding by equilibrium dialysis, rat; assay type: in vitro ADME; conditions: read-out: fu (rat)
Method: as §3

[6] = Plasma protein binding by equilibrium dialysis, mouse; assay type: in vitro ADME; conditions: read-out: fu (mouse)
Method: as §3

[7] = Plasma protein binding by equilibrium dialysis, human; assay type: in vitro ADME; conditions: read-out: fu (human)
Method: as §3

human ACC1 [8] = biological target: T1, human ACC1 (Homo sapiens, UniProt Q13085); assay: Human ACC1 enzyme assay (ADP-Glo); assay type: biochemical
T1 construct: FLAG (C); made in house; host or cells: baculovirus-infected insect cells (Hi5)

Spodoptera frugiperda = Spodoptera frugiperda test (SPODFR spray treatment); assay type: in vivo; conditions: 500 g/ha, after 7 days
Boophilus microplus = Boophilus microplus test (BOOPMI injection); assay type: in vivo; conditions: 20 μg/animal, after 7 days
Method: (§4) • Solvent: dimethyl sulphoxide
The solution of active compound is injected into the abdomen (Boophilus microplus), and the animals are transferred into dishes and kept in a climatized room. The activity is assessed by […] of fertile eggs.

Phaedon cochleariae = assay: Phaedon test (PHAECO spray treatment); conditions: 500 g/ha, after 7 days
Myzus persicae = assay: Myzus test (MYZUPE spray treatment); assay type: in vivo
Description: Disks of Chinese cabbage (Brassica pekinensis) infested by all stages of the green peach aphid (Myzus persicae) are sprayed with an active compound formulation of the desired concentration.

Lucilia cuprina = Lucilia cuprina test (LUCICU); assay type: in vivo; conditions: 100 ppm, after 2 days
Description: as §4
Vessels containing horse meat treated with the active compound preparation of the desired concentration are populated with about 20 Lucilia cuprina larvae.

Tetranychus urticae = assay: Tetranychus test, OP-resistant (TETRUR spray treatment); assay type: in vivo
Meloidogyne incognita = Meloidogyne incognita test (MELGIN); assay type: in vivo; conditions: 20 ppm, after 14 days
Method: • Solvent: 125 parts by weight of acetone
Containers are filled with sand, solution of active compound, Meloidogyne incognita egg/larvae suspension and lettuce seeds. The lettuce seeds germinate and the plants develop. On the roots, galls are formed. After 14 days, the nematicidal effect in % is determined by the formation of galls. 100% means that no galls have been found; 0% means that the number of galls on the treated plants corresponds to the untreated control.

[9] = reference substances with known distribution coefficients; cited from earlier work
[10] = Homo sapiens, MCF7, 96 h; read-out: MCF7 IC50
[11] = Homo sapiens, MCF7, 96 h, read-out: MCF7 IC50
[12] = ACC 1 IC50, individual measurements

| Structure (SMILES) | IC50 (MCF7; [10]) | IC50 (human ACC2) | logMA [1] | chromatographic logP [3] | Selectivity ACC1 vs. ACC2 (mean of the individual measurements ± standard deviation) (human ACC1 [4]) | Ratio of IC50s ACC2/ACC1 (respective measurement) (human ACC1 [4]) | fraction unbound [5] | fraction unbound [6] | fraction unbound [7] | Kd [2] | nematicidal effect (formation of galls) (Meloidogyne incognita) | IC50 (MCF7; [11]) | IC50 (human ACC1 [8]; [12]) | also measured |
| --- | --- | --- | --- | --- | --- | --- | --- | --- | --- | --- | --- | --- | --- | --- |
| Cc1ccc(-c2ccc(Cl)cc2)cc1C1=C(O)[C@]2(CC[C@H](C(F)(F)F)CC2)NC1=O [V.2-a, (5s,8s)-3-(4′-Chloro-4-methylbiphenyl-3-yl)-4-hydroxy-8-(trifluoromethyl)-1-azaspiro[4.5]dec-3-en-2-one, reference compound] | 35 nM | 1220 nM and 940 nM | 2.38 (2.0-2.7, n = 4) | 2.23 | 9.8 ± 1.4 | 11.2 and 8.4 | – | – | – | – | – | – | – | IC50 (H460; Homo sapiens, NCI-H460, 96 h; read-out: H460 IC50): 57 nM; fu (mouse) (plasma proteins): 2.41%; IC50 (PC3; Homo sapiens, PC-3, 96 h; read-out: PC3 IC50): 38 nM; Kd at 0.25 μmol/liter ([2]; human, pH 7.4): 3070 nM; IC50 (KM12; Homo sapiens, KM12, 96 h; read-out: KM12 IC50): 37 nM |
| Cc1ccc(-c2ccc(Cl)c(F)c2)cc1C1=C(O)C2(CCCCC2)NC1=O [V.1-b, 3-(4′-Chloro-3′-fluoro-4-methylbiphenyl-3-yl)-4-hydroxy-1-azaspiro[4.5]dec-3-en-2-one, reference compound] | 22 nM | 1950 nM | 2.55 (2.4-2.9, n = 4) | 2.8 | 46.9 | 45.9 | 0.0612 | 0.0746 | 0.004 | 3500 nM | – | – | – | IC50 (human ACC1 [8]; individual measurements, read-out: ACC 1 IC50): 43 nM |
| Cc1ccc(-c2ccc(F)cc2)c(C)c1C1=C(O)C2(CCC(F)(F)CC2)NC1=O [Example I-1-a-2] | – | – | – | – | – | – | – | – | – | – | 100% | – | – | effect (kill of caterpillars) (Spodoptera frugiperda): 100%; effect (no fertile eggs) (Boophilus microplus): 80%; effect (kill of beetle larvae) (Phaedon cochleariae): 100%; effect (kill of aphids) (Myzus persicae; 500 g/ha, after 6 days): 100%; kill of larvae (Lucilia cuprina): 100%; effect (kill of spider mites) (Tetranychus urticae; 500 g/ha, after 6 days): 100% |
| Cc1ccc(-c2ccc(Cl)cc2)cc1C1=C(O)C2(CCCCC2)NC1=O [V.2-b, 3-(4′-Chloro-4-methylbiphenyl-3-yl)-4-hydroxy-1-azaspiro[4.5]dec-3-en-2-one, reference compound] | – | 2400 nM and 2760 nM | 2.05 (1.9-2.2, n = 2) | 2.77 | 12.8 ± 1.3 | 11.5 and 14.1 | 0.0071 | 0.0281 | 0.0036 | 3220 nM | – | 41 nM | 208 nM and 196 nM | – |
| Clc1ccc(C(c2ccc(Cl)cc2)C(Cl)(Cl)Cl)cc1 [DDT] | – | – | – | – | – | – | – | – | – | – | – | – | – | log P [9]: 6.2 |
| Cc1ccc(-c2ccc(Cl)cc2)c(C)c1C1=C(O)C2(CCC(F)(F)CC2)NC1=O [Example 1-5, 3-(4′-Chloro-2,4-dimethylbiphenyl-3-yl)-8,8-difluoro-4-hydroxy-1-azaspiro[4.5]dec-3-en-2-one] | – | 2700 nM | – | – | 12.4 | 12.4 | – | – | – | – | 100% | 205 nM | 218 nM | IC50 (H460; Homo sapiens, NCI-H460, 96 h, read-out: H460 IC50): 769 nM; IC50 (PC3; Homo sapiens, PC-3, 96 h, read-out: PC3 IC50): 506 nM; pest or weed control at 500 g/ha (Myzus persicae; Myzus persicae, 144 h, read-out: effect (kill of aphids)): 100%; pest or weed control at 100 g/ha (Tetranychus urticae; Tetranychus urticae, 144 h, read-out: effect (kill of spider mites)): 90%; IC50 (KM12; Homo sapiens, KM12, 96 h, read-out: KM12 IC50): 668 nM; melting point: 141 to 145 °C |
